Where “and” joins values, the source holds several entries; their conditions need not be identical. Equal values may be shown once. Read-outs that look alike come from different tables or passages of the source.
Assays:
[1] = Phase I (Group 2) study of HME or SDD formulations in healthy human subjects, fed (standard meal); format: in vivo; settings: 225 mg HME or SDD oral; for half-life: human, plasma, po, 225 mg
Procedure: Bioavailability of the ion channel modulator compound 1 was studied in healthy human subjects using SDD and HME formulations, with subjects in a fed state. The effect the SDD or HME formulation on bioavailability following a single oral dose under fed conditions was thereby evaluated and compared. Safety and tolerability of compound 1 was also evaluated.
This study utilized a single-center, single-dose open-label, 2-group, 2-period randomized crossover design to determine bioavailability following treatment with the SDD or HME formulation under fed conditions. A total of 16 subjects were selected by the criteria described in Example 10.
Subjects were treated with an oral dose of 225 mg HME (as described in Example 8, Table 14) or 225 mg SDD (as described in Example 7) with approximately 8 fluid ounces of water in the fed (standard meal) state. Subjects were randomized between HME and SDD formulations in equal numbers during period 1 of the trial, and, following a washout period, assigned to the opposite formulation during period 2. The fed condition is defined as the state of a subject following an overnight fast of at least 10 hours with a test meal provided 30 minutes prior to administration of the study drug. The subject must completely consume their respective meal before being dosed. Meals were standardized and standard meals were served according to a pre-determined schedule throughout the inpatient portion of the study. A standardized meal derived approximately 35% of total caloric content of the meal from fat, approximately 15-20% from protein, and approximately 45-50% from carbohydrates, with a total caloric content of approximately 400-450 calories. An example test meal would have included ⅝ ounces Cheerios®, 1 egg, 1 strip of bacon, 1 slice of toast with margarine, 6 ounces of low fat milk, and 4 ounces of orange juice. The time of food intake before and after study drug administration was documented. Water was allowed as desired except for one hour before and after drug administration. Outside of these restrictions, subjects in both fed and fasted conditions were provided fluid intake according to the subject's individual needs, with documentation. HME and SDD groups were dosed and evaluated simultaneously.
Treatments of 225 mg HME or SDD were administered on day 1 of period 1 of the trial and subjects were admitted to the clinical research unit (CRU) for four days of inpatient evaluation. Subjects were discharged from the CRU upon completion of assessments on day 4, and reported to the CRU for additional pharmacokinetic blood sampling and safety assessment on days 5 and 6, completing period 1. There was a 7-day washout between the first and second period drug administrations. In the second period, subjects were treated with an oral dose of 225 mg HME or 225 mg SDD in the fed (standard meal) state. The treatment was administered on day 1 of period 2 of the trial and subjects were admitted to the clinical research unit (CRU). Subjects were discharged from the CRU upon completion of assessments on day 4, and reported to the CRU for additional and followup pharmacokinetic blood sampling and safety assessment on days 5, 6, 8, 15, 22, 29, and 36 of period 2.
Pharmacokinetic assessments conducted during each treatment period were performed by the collection of venous blood samples via indwelling catheter or direct venipuncture. The plasma concentrations of the drug was determined for each sample. Concentration of the drug was determined using a validated liquid chromatography coupled with tandem mass (LC/MS/MS) assay, with a lower limit of quantitation (LLOQ) of 0.1 ng/mL. Descriptive statistics were calculated for these parameters and tabulated by formulation and period. Safety of the trial subjects was assessed by the following endpoints: adverse events, vital signs, ECG parameters, laboratory parameters, medical history, and physical examination. […]

[2] = log P of compound 1 (previously determined); format: physicochemical
Source text: Compound 1 has the following previously determined characteristics: […]

- Half-Life Ratio ([1]; ratio period 1 to period 2, Mean): 73%
- half-life ([1]; period 1, Mean, read-out: Half-Life Period 1 (converted)): 139 h
- half-life ([1]; period 2, Mean, read-out: Half-Life Period 2 (converted)): 166 h
- logP [2]: 2.6
SMILES: O=C(CC(c1ccccc1)c1ccccc1)N1CCN(C(c2ccccc2)c2ccccc2)CC1 [Compound 1, 1-(4-benzhydrylpiperazin-1-yl)-3,3-diphenylpropan-1-one]
- Half-Life Period 1 ([1]; period 1, individual subjects): 617 h and 79 h and 75 h and 270 h and 73 h and 115 h and 112 h and 92 h and 94 h and 163 h and 96 h and 114 h and 72 h and 105 h and 77 h
- Half-Life Period 2 ([1]; period 2, individual subjects): 104 h and 171 h and 176 h and 417 h and 82 h and 106 h and 149 h and 155 h and 137 h and 400 h and 193 h and 98 h and 71 h and 116 h and 114 h
- Half-Life Ratio ([1]; ratio period 1 to period 2, individual subjects): 76% and 44% and 43% and 65% and 89% and 108% and 75% and 59% and 69% and 41% and 50% and 116% and 101% and 91% and 68%
